Data on 24 molecules can be found in patent publication US8193203B2, “Bicyclic compounds having activity at the CXCR4 receptor” (Allergan, Inc., priority 2008, dated 2012).

The assay addresses T1, human CXCR4 receptor (Homo sapiens, UniProt P61073).
T1 construct: expressed in transfected cells
Briefly: Measurement of intracellular Ca+2 responses (FLIPR), antagonism of the SDF-1α response. In kind it is cell-based. The note with it: for IC50: HEK-Gqi5 cells stably expressing human CXCR4, Fluo-4 FLIPR, antagonism of SDF-1α 1.9 nM (EC65); for CXCR4 (% Inh): percent antagonism of SDF-1α 1.9 nM (EC65) response, HEK-Gqi5 human CXCR4 cells, value in brackets. How it is done:
Measurement of Intracellular Ca^+2 Responses for CXCR4 Compounds
HEK-Gqi5 cells stably expressing the human CXCR4 receptor were utilized for these studies. The growth media for the CXCR4 receptor expressing cell line was DMEM high glucose medium supplemented with 10% fetal bovine serum (FBS), 1% antibiotic-antimycotic, 50 ug/ml hygromycin B, and 400 μg/ml geneticin. Ten thousand cells per well were plated into 384-well poly-D-lysine coated plates one day prior to use. On the day of the experiment, the cells were washed twice with Hank's Balanced Salt Solution supplemented with 20 mM hepes (HBSS/hepes buffer). The cells were then dye loaded with 2 uM Fluo-4 diluted in the HBSS/Hepes buffer and incubated at 37° C. for 40 minutes. Extracellular dye was removed by washing the cell plates four times prior to placing the plates in the FLIPR (Fluorometric Imaging Plate Reader, Molecular Devices). Ligands were diluted in HBSS/Hepes buffer and prepared in 384-well microplates. The positive control, stromal-cell derived factor-1 (SDF-1α), was diluted in HBSS/Hepes buffer with 4 mg/ml fatty acid free bovine serum albumin. Two drug additions were made by the FLIPR. The first drug addition was the test drug in concentrations ranging from 2.44 nM to 40,000 nM. After this addition, fluorescent measurements were taken. Any calcium release in response to this drug addition represents agonist activity of the compounds. The second drug addition was SDF-1α at a final concentration of 1.9 nM (EC65). Fluorescence measurements were also taken after this second drug addition and were used to determine the ability of the test compounds to antagonize the SDF-1α response. Results were expressed as EC50 and efficacy values, as well as IC50 and percent antagonism values. As controls, SDF-1α (CXCR4 agonist) and AMD3100 (CXCR4 antagonist) dose-response curves were also determined in each study.

T1 sequence (P61073 whole entry): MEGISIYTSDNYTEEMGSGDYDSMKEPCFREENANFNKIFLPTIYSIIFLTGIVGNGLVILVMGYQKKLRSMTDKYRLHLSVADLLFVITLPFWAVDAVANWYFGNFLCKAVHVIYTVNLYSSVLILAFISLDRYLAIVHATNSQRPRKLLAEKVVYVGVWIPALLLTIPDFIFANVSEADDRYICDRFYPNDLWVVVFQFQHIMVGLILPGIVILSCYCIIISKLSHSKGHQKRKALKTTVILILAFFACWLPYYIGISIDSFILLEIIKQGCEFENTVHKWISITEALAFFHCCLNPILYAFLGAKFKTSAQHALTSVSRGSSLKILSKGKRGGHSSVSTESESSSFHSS

In general, IC50 refers to the concentration at which inhibition is half-maximal. Lower therefore signals greater potency. Turning to `COCCCNc1nc(NC2CCN(Cc3c(OC)cccc3N(C)C)CC2)c2ccccc2n1` [Compound 87, N4-(1-(2-(Dimethylamino)-6-methoxybenzyl)piperidin-4-yl)-N2-(3-methoxypropyl)quinazoline-2,4-diamine], the “CXCR4 (% Inh)” value is on record as 96%. The molecule also displayed an IC50 (values in nM) of 810 nM.
Take `COc1cccc(N(C)C)c1CN1CCC(Nc2nc(N3CCC3)nc3ccccc23)CC1` [Compound 88, 2-(Azetidin-1-yl)-N-(1-(2-(dimethylamino)-6-methoxybenzyl)piperidin-4-yl)quinazolin-4-amine]: the “CXCR4 (% Inh)” value stood at 94%. Further, for the setting “values given in μM”, the IC50 is 1900 nM.
As to `COc1cccc(N(C)C)c1CN1CCC(Nc2nc(NCCCN3CCCC3=O)nc3ccccc23)CC1` [Compound 89, 1-(3-(4-(1-(2-(Dimethylamino)-6-methoxybenzyl)piperidin-4-ylamino)quinazolin-2-ylamino)propyl)pyrrolidin-2-one], the “CXCR4 (% Inh)” value is given as 92%. The IC50 (values given in μM) was found to be 1400 nM.
As to `COc1cccc(N(C)C)c1CN1CCC(Nc2nc(N(CCO)C(C)=O)nc3ccccc23)CC1` [Compound 90, N-(4-(1-(2-(Dimethylamino)-6-methoxybenzyl)piperidin-4-ylamino)quinazolin-2-yl)-N-(2-hydroxyethyl)acetamide], the “CXCR4 (% Inh)” value amounted to 93%. The IC50 (values given in μM) stood at 1500 nM.
For the molecule `CCCCNc1nc(NC2CCN(Cc3c(OC)cccc3N(C)C)CC2)c2ccccc2n1` [Compound 91, N2-Butyl-N4-(1-(2-(dimethylamino)-6-methoxybenzyl)piperidin-4-yl)quinazoline-2,4-diamine], the “CXCR4 (% Inh)” value was 80%. For the same molecule, half-maximal inhibition (values given in μM) (IC50) required 2000 nM.
In the same order, the values of `COc1cccc(N(C)C)c1CN1CCC(Nc2nc(N3CC3)nc3ccccc23)CC1` [Compound 92, 2-(Aziridin-1-yl)-N-(1-(2-(dimethylamino)-6-methoxybenzyl)piperidin-4-yl)quinazolin-4-amine] are 75% and 2100 nM.
Take `COc1cccc(N(C)C)c1CN1CCC(Nc2nc(NCC(F)(F)F)nc3ccccc23)CC1` [Compound 93, N4-(1-(2-(Dimethylamino)-6-methoxybenzyl)piperidin-4-yl)-N2-(2,2,2-trifluoroethyl)quinazoline-2,4-diamine]: the “CXCR4 (% Inh)” value was determined as 79%. Also, 4300 nM corresponded to half-maximal inhibition (values given in μM) (IC50).
For the molecule `COc1cccc(N(C)C)c1CN1CCC(Nc2nc(NC3CCN(C)CC3)nc3ccccc23)CC1` [Compound 94, N4-(1-(2-(Dimethylamino)-6-methoxybenzyl)piperidin-4-yl)-N2-(1-methylpiperidin-4-yl)quinazoline-2,4-diamine], the “CXCR4 (% Inh)” value is recorded as 96%. Besides, where the note is “values in nM”, the IC50 was 790 nM.
For the molecule `COc1cccc(N(C)C)c1CN1CCC(Nc2nc(NCCN3CC(C)OC(C)C3)nc3ccccc23)CC1` (stereo not drawn) [Compound 95, N4-(1-(2-(Dimethylamino)-6-methoxybenzyl)piperidin-4-yl)-N2-(2-(2,6-dimethylmorpholino)ethyl)quinazoline-2,4-diamine], the “CXCR4 (% Inh)” value is on record as 98%. This molecule displayed an IC50 (values in nM) of 605 nM.
For `COc1cccc(N(C)C)c1CN1CCC(Nc2nc(NCC(C)(C)CN(C)C)nc3ccccc23)CC1` [Compound 96, N2-(3-(Dimethylamino)-2,2-dimethylpropyl)-N4-(1-(2-(dimethylamino)-6-methoxybenzyl)piperidin-4-yl)quinazoline-2,4-diamine], the “CXCR4 (% Inh)” value is recorded as 100%. Inhibition (values in nM) was half-maximal at 240 nM (IC50).
Consider `COc1cccc(N(C)C)c1CN1CCC(Nc2nc(NCCC3CCCN3C)nc3ccccc23)CC1` (stereo not drawn) [Compound 97, N4-(1-(2-(Dimethylamino)-6-methoxybenzyl)piperidin-4-yl)-N2-(2-(1-methylpyrrolidin-2-yl)ethyl)quinazoline-2,4-diamine], for which the “CXCR4 (% Inh)” value is reported as 100%. This molecule also came in with an IC50 (values in nM) of 140 nM.
`COc1cccc(N(C)C)c1CN1CCC(Nc2nc(NCC3CCCO3)nc3ccccc23)CC1` (stereo not drawn) [Compound 98, N4-(1-(2-(Dimethylamino)-6-methoxybenzyl)piperidin-4-yl)-N2-((tetrahydrofuran-2-yl)methyl)quinazoline-2,4-diamine]: the “CXCR4 (% Inh)” value was 98%. In addition, half-maximal inhibition (values in nM) (IC50) was put at 624 nM.
With `COc1cccc(N(C)C)c1CN1CCC(Nc2nc(NCCCO)nc3ccccc23)CC1` [Compound 99, 3-(4-(1-(2-(Dimethylamino)-6-methoxybenzyl)piperidin-4-ylamino)quinazolin-2-ylamino)propan-1-ol], the “CXCR4 (% Inh)” value is given as 100%. The molecule also came in with an IC50 (values in nM) of 611 nM.
With `COc1cccc(N(C)C)c1CN1CCC(Nc2nc(NCCC#N)nc3ccccc23)CC1` [Compound 100, 3-(4-(1-(2-(Dimethylamino)-6-methoxybenzyl)piperidin-4-ylamino)quinazolin-2-ylamino)propanenitrile], the “CXCR4 (% Inh)” value stood at 100%. The molecule also gave an IC50 (values given in μM) of 1900 nM.
Take `CNCCCCNc1nc(NC2CCN(Cc3c(OC)cccc3N(C)C)CC2)c2ccccc2n1` [Compound 102, N4-(1-(2-(Dimethylamino)-6-methoxybenzyl)piperidin-4-yl)-N2-(4-(methylamino)butyl)quinazoline-2,4-diamine]: the “CXCR4 (% Inh)” value is recorded as 97%. The same molecule gave an IC50 (values in nM) of 215 nM.
Take `COc1cccc(N(C)C)c1CN1CCC(Nc2nc(N3CC(CN(C)C(=O)OC(C)(C)C)C3)nc3ccccc23)CC1` [Compound 103, tert-Butyl (1-(4-(1-(2-(Dimethylamino)-6-methoxybenzyl)piperidin-4-ylamino)quinazolin-2-yl)azetidin-3-yl)methyl(methyl)carbamate]: the “CXCR4 (% Inh)” value was determined as 82%. For the setting “values given in μM”, this molecule registered an IC50 of 4100 nM.
Consider `CNCC1CN(c2nc(NC3CCN(Cc4c(OC)cccc4N(C)C)CC3)c3ccccc3n2)C1` [Compound 104, N-(1-(2-(Dimethylamino)-6-methoxybenzyl)piperidin-4-yl)-2-(3-((methylamino)methyl)azetidin-1-yl)quinazolin-4-amine], for which the “CXCR4 (% Inh)” value was determined as 97%. Under “values given in μM”, this molecule registered a half-maximal inhibitory concentration (IC50) of 1000 nM.
With `CCNCCNc1nc(NC2CCN(Cc3c(OC)cccc3N(C)C)CC2)c2ccccc2n1` [Compound 105, N4-(1-(2-(Dimethylamino)-6-methoxybenzyl)piperidin-4-yl)-N2-(2-(ethylamino)ethyl)quinazoline-2,4-diamine], the “CXCR4 (% Inh)” value was 98%. The molecule further displayed an IC50 (values in nM) of 771 nM.
Regarding `COc1cccc(N(C)C)c1CN1CCC(Nc2nc(NCC3CCN(C(=O)OC(C)(C)C)C3)nc3ccccc23)CC1` (stereo not drawn) [Compound 106, tert-Butyl 3-((4-(1-(2-(Dimethylamino)-6-methoxybenzyl)piperidin-4-ylamino)quinazolin-2-ylamino)methyl)pyrrolidine-1-carboxylate], the “CXCR4 (% Inh)” value is on record as 73%. Besides, the IC50 (values given in μM) came to 2300 nM.
Turning to `CCN1CCC(CNc2nc(NC3CCN(Cc4c(OC)cccc4N(C)C)CC3)c3ccccc3n2)C1` (stereo not drawn) [Compound 107, N4-(1-(2-(Dimethylamino)-6-methoxybenzyl)piperidin-4-yl)-N2-((1-ethylpyrrolidin-3-yl)methyl)quinazoline-2,4-diamine], the “CXCR4 (% Inh)” value turned out to be 96%. The same molecule returned an IC50 (values in nM) of 653 nM.
`COc1cccc(N(C)C)c1CN1CCC(Nc2nc(NCC3CN(C(=O)OC(C)(C)C)C3)nc3ccccc23)CC1` [Compound 108, tert-Butyl 3-((4-(1-(2-(Dimethylamino)-6-methoxybenzyl)piperidin-4-ylamino)quinazolin-2-ylamino)methyl)azetidine-1-carboxylate]: the “CXCR4 (% Inh)” value is given as 89%. The molecule further had an IC50 (values given in μM) of 2000 nM.
Turning to `COc1cccc(N(C)C)c1CN1CCC(Nc2nc(NCC3CNC3)nc3ccccc23)CC1` [Compound 109, N2-(Azetidin-3-ylmethyl)-N4-(1-(2-(dimethylamino)-6-methoxybenzyl)piperidin-4-yl)quinazoline-2,4-diamine], the “CXCR4 (% Inh)” value is 98%. Further, the IC50 (values in nM) was found to be 155 nM.
For `COc1cccc(N(C)C)c1CN1CCC(Nc2nc(NC[C@H]3CCN(C(=O)OC(C)(C)C)C3)nc3ccccc23)CC1` [Compound 110, (R)-tert-Butyl 3-((4-(1-(2-(Dimethylamino)-6-methoxybenzyl)piperidin-4-ylamino)quinazolin-2-ylamino)methyl)pyrrolidine-1-carboxylate], the “CXCR4 (% Inh)” value was found to be 81%. The IC50 (values given in μM) was found to be 2200 nM.
In the case of `COc1cccc(N(C)C)c1CN1CCC(Nc2nc(NC[C@H]3CCNC3)nc3ccccc23)CC1` [Compound 111, (S)—N-4-(1-(2-(Dimethylamino)-6-methoxybenzyl)piperidin-4-yl)-N2-(pyrrolidin-3-ylmethyl)quinazoline-2,4-diamine], the “CXCR4 (% Inh)” value came out at 98%. Also, the 50% inhibitory concentration (IC50) (unit of the source corrected, heading: CXCR4 IC50, values given in μM) is 224 nM.
